Assay results reported in patent publication US11617356B2, “Mouse lymphoma cell line and animal model of human high grade B-cell lymphoma” (PÉCSI TUDOMÁNYEGYETEM, priority 2015, dated 2023).

System: Bc-DLFL.1 cells
Assay: short-term in vitro survival of Bc-DLFL.1 cells on addition of recombinant BAFF
Format: cell-based, mouse
Conditions: addition of recombinant BAFF to culture; data not shown
From the text: The specific conditions needed to propagate Bc-DLFL.1 raised the dependence of this lymphoma for tissue-derived factors for survival. The most likely candidates are the different receptors for BAFF. […] In normal B-cell development, TACI and BCMA is expressed following activation during plasmacytic differentiation, while BAFF-R disappears. BAFF-R is more characteristic of mature resting B-cells.

recombinant BAFF: recombinant BAFF, ligand of BAFF-R, BCMA and TACI, added to Bc-DLFL.1 cells in vitro
short-term in vitro survival of Bc-DLFL.1 cells: moderately increased
